Data set [1] can be described thus: Protease assay with trypsin. It is filed as in vitro ADME. As to conditions: trypsin (isolated protease) in buffer; 100 mM TRIS–HCl pH 8.0 without CaCl2; peptide 100 mM (so in the source); protease stock 0.5 mg/mL; samples at 2, 6, 25, 60 min; HPLC–MS; < 24 = peak not detected at 2 min, 3% detection limit.
The nature of data set [2]: Protease assay with chymotrypsin. It is filed as in vitro ADME. The following applies: chymotrypsin (isolated protease) in buffer; 100 mM TRIS–HCl pH 8.0 with 10 mM CaCl2; peptide 100 mM (so in the source); 50 mL of 0.5 mg/mL chymotrypsin stock to 500 mL peptide solution (so in the source); samples at 2, 6, 25, 60 min; HPLC–MS; < 24 = peak not detected at 2 min, 3% detection limit. On the procedure:
(§1) Protease assays: Peptides were dissolved in 100 mM TRIS–HCl buffer (pH 8.0) containing 10 mM CaCl2 at 100 mM concentration. Chymotrypsin (Sigma-Aldrich, Budapest, Hungary) stock solution was 0.5 mg/mL in the same buffer. A total […] peptide solution was measured in a reaction vessel and […] protease stock was added. Samples of […] were taken after 2, 6, 25 and 60 min. The samples were diluted into […] 5% TFA aliquots. The samples were then injected into HPLC–MS using a Phenomenex C18-XB Peptide column (250 × 4.6 mm, […]).

A further data set deals with T1, Chymotrypsin (Bos taurus, UniProt P00766).
T1 construct: purchased Sigma-Aldrich
The data set is described as follows: Protease assay with chymotrypsin. It is filed as in vitro ADME. The following applies: chymotrypsin (isolated protease) in buffer; 100 mM TRIS–HCl pH 8.0 with 10 mM CaCl2; peptide 100 mM (so in the source); 50 mL of 0.5 mg/mL chymotrypsin stock to 500 mL peptide solution (so in the source); samples at 2, 6, 25, 60 min; HPLC–MS; < 24 = peak not detected at 2 min, 3% detection limit. The method, then:
as §1

For the next data set, the target named is ganglioside GM1. The data set is described as follows: Isothermal titration calorimetry (ITC) with GM1:DPC 1:5 bicelles. As to conditions: 35 °C, GM1:DPC 1:5 (GM1 300 µM in syringe) injected into 15 µM ligand in cell, pH 7.2 phosphate buffer, one- or two-site fit, experiments repeated twice; for Kd: read-out: Binding affinities (KD) to ganglioside GM1. It is filed as binding. The method, then:
Isothermal Titration Calorimetry: ITC was performed using a MicroCal VP-ITC microcalorimeter at 35 °C. The monosialoganglioside GM1 was obtained from Biosynth-Carbosynth (Bratislava, Slovakia, product code: OG03918, C73H131N3O31·xNa, HPLC purity > 95%). The n-dodecylphosphocholine (DPC) was obtained from Avanti (Alabaster, Alabama, product code: 850336, C17H38NO4P, purity > 99%). In individual titrations, 15 µL of solution containing GM1:DPC 1:5 was injected into the ligand solution in the cell from a computer-controlled 300 µL microsyringe at time intervals of 300 s. The GM1:DPC micelle mixture was prepared in the same pH 7.2 phosphate buffer as the ligand in the cell. The concentration of the ligand in the cell was 15 µM. The concentration of GM1 in the syringe was 300 µM. In control experiments, GM1:DPC was titrated into the cell containing buffer without ligand. To rule out lipid clustering, control measurements were performed with pure GM1 in the syringe, which yielded a […], indicating the GM1:DPC interaction in the micelles (Figure S6). No aggregation of the micelles was observed after titration, which rules out any secondary inter-particle effects induced by ligand binding. We note that such an uncontrolled aggregation phenomenon would have been detrimental to the very sensitive ITC detection. Our finding is in agreement with the literature results that mixed micelles of GM1 and DPC are readily formed. The experiments were repeated twice. The experimental data were fitted to one-binding-site or two-independent-site models with adjustable parameters of ΔHb1, Kd1, n1, and ΔHb2, Kd2, n2, respectively. Background subtraction and spline baseline correction was applied prior to the application of a generalized reduced gradient nonlinear least-squares procedure. […] Errors were estimated by using jack-knife resampling.

No end group written: not given here.

For `NCCCC[C@H](NC(=O)[C@H](Cc1ccc(O)cc1)NC(=O)[C@@H](N)Cc1c[nH]c2ccccc12)C(=O)N[C@@H](Cc1ccc(O)cc1)C(=O)N[C@H](CC(N)=O)Cc1c[nH]c2ccccc12` [WYKYWβ], the half-life in data set [1] and in data set [2] was below 0.4 min throughout.

In the case of `NCCCC[C@H](NC(=O)[C@H](Cc1ccc(O)cc1)NC(=O)[C@@H](N)Cc1c[nH]c2ccccc12)C(=O)N[C@H](CC(=O)N[C@@H](Cc1c[nH]c2ccccc12)C(N)=O)Cc1ccc(O)cc1` [WYKYβW], the values for the half-life in data set [1] and in data set [2] were 6.83 min and below 0.4 min, respectively.

As to `NCCCC[C@@H](CC(=O)N[C@@H](Cc1ccc(O)cc1)C(=O)N[C@@H](Cc1c[nH]c2ccccc12)C(N)=O)NC(=O)[C@H](Cc1ccc(O)cc1)NC(=O)[C@@H](N)Cc1c[nH]c2ccccc12` [WYKβYW], the half-life (in general, the time needed for the level to fall by half in the phase considered) on Chymotrypsin is 10.8 min.

Regarding `NCCCC[C@H](NC(=O)C[C@H](Cc1ccc(O)cc1)NC(=O)[C@@H](N)Cc1c[nH]c2ccccc12)C(=O)N[C@@H](Cc1ccc(O)cc1)C(=O)N[C@@H](Cc1c[nH]c2ccccc12)C(N)=O` [WYβKYW], the half-life was 15 min in data set [1] and 1.25 min at Chymotrypsin.

In the case of `NCCCC[C@H](NC(=O)[C@H](Cc1ccc(O)cc1)NC(=O)C[C@@H](N)Cc1c[nH]c2ccccc12)C(=O)N[C@@H](Cc1ccc(O)cc1)C(=O)N[C@@H](Cc1c[nH]c2ccccc12)C(N)=O` [WβYKYW], the values for the half-life in data set [1] and in data set [2] were 1.83 min and below 0.4 min, respectively.

On to “AYKYW [Ala derivative of WYKYW, position 1]”, for which the “Binding affinities (KD) to ganglioside GM1” value at ganglioside GM1 was “n.f. ^[a]”.

WAKYW-NH2 [WAKYW]: at ganglioside GM1, the equilibrium dissociation constant (Kd) (as a rule, the free concentration of one partner at which half of the binding sites on the other are occupied at equilibrium, for simple one-to-one binding) was determined as 5.75 µM.

With WYAYW-NH2 [WYAYW], on ganglioside GM1, the dissociation constant (Kd) came to 10.5 µM.

On to WYKAW-NH2 [WYKAW], for which the dissociation constant Kd on ganglioside GM1 came out at 1.69 µM.

On to WYKYA-NH2 [WYKYA], for which the Kd on ganglioside GM1 worked out at 1.06 µM.

(Values after publication PMC8953856, “α/β-Peptides as Nanomolar Triggers of Lipid Raft-Mediated Endocytosis through GM1 Ganglioside Recognition” (Pharmaceutics, 2022).)
